Results as given in ChEMBL document CHEMBL1201862, “PubChem BioAssay data set” (2004).
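Results reflect a 48-hour exposure of cells in 96-well plates to compound at five concentrations. Here, GI50 denotes the concentration required for 50% inhibition of growth.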 Calls of active or inactive are those of the source. No stated cut-off is given here; in the data, active = GI50 up to about 1.1 µM and inactive = higher.

How the values were obtained:
Test in all cases: NCI anticancer screen, dose series, 48 h
NCI-H23 = test system: NCI-H23
PC-3 = test system: PC-3
NCI-H522 = test system: NCI-H522
UACC-62 = test system: UACC-62
A498 = test system: A498
HOP-62 = test system: HOP-62
DU-145 = test system: DU-145
SF-295 = test system: SF-295
CAKI-1 = test system: CAKI-1
HL-60 = test system: HL-60
KM12 = test system: KM12
TK-10 = test system: TK-10
NCI-H460 = test system: NCI-H460
NCI-H226 = test system: NCI-H226
IGROV-1 = test system: IGROV-1
MOLT-4 = test system: MOLT-4
LOX IMVI = test system: LOX IMVI
HCC 2998 = test system: HCC 2998
RXF 393 = test system: RXF 393
SK-MEL-28 = test system: SK-MEL-28

Structure (SMILES) | GI50 (NCI-H23) | GI50 (PC-3) | GI50 (NCI-H522) | GI50 (UACC-62) | GI50 (A498) | GI50 (HOP-62) | GI50 (DU-145) | GI50 (SF-295) | GI50 (CAKI-1) | GI50 (HL-60) | GI50 (KM12) | GI50 (TK-10) | GI50 (NCI-H460) | GI50 (NCI-H226) | GI50 (IGROV-1) | GI50 (MOLT-4) | GI50 (LOX IMVI) | GI50 (HCC 2998) | GI50 (RXF 393) | GI50 (SK-MEL-28)
COc1ccc(SC(C)(SC)c2ccccn2)c(OC)n1 (stereo not given) | 35.4 µM (inactive) | 76.2 µM (inactive) | 36.3 µM (inactive) | 87.3 µM (inactive) | 53.3 µM (inactive) | > 100 µM (inactive) | > 100 µM (inactive) | 49.2 µM (inactive) | > 100 µM (inactive) | 3.24 µM (inactive) | 79.1 µM (inactive) | > 100 µM (inactive) | 73.1 µM (inactive) | 42.5 µM (inactive) | > 100 µM (inactive) | 3.22 µM (inactive) | 72.1 µM (inactive) | > 100 µM (inactive) | > 100 µM (inactive) | > 100 µM (inactive)
OCCN(CCO)c1ccc2c(C(F)(F)F)cc(C(F)(F)F)nc2n1 | > 100 µM (inactive) | > 100 µM (inactive) | > 100 µM (inactive) | > 100 µM (inactive) | 48.5 µM (inactive) | > 100 µM (inactive) | > 100 µM (inactive) | > 100 µM (inactive) | > 100 µM (inactive) | > 100 µM (inactive) | > 100 µM (inactive) | > 100 µM (inactive) | > 100 µM (inactive) | > 100 µM (inactive) | > 100 µM (inactive) | > 100 µM (inactive) | > 100 µM (inactive) | > 100 µM (inactive) | > 100 µM (inactive) | > 100 µM (inactive)
Cn1c(=O)oc2cc(C(O)CN3CCN(Cc4ccccn4)CC3)c(Cl)cc21 (stereo not given) | > 100 µM (inactive) | > 100 µM (inactive) | > 100 µM (inactive) | > 100 µM (inactive) | > 100 µM (inactive) | > 100 µM (inactive) | > 100 µM (inactive) | > 100 µM (inactive) | > 100 µM (inactive) | > 100 µM (inactive) | > 100 µM (inactive) | > 100 µM (inactive) | > 100 µM (inactive) | > 100 µM (inactive) | > 100 µM (inactive) | > 100 µM (inactive) | > 100 µM (inactive) | > 100 µM (inactive) | > 100 µM (inactive) | > 100 µM (inactive)
O=C(O)[C@H]1[C@@H](C2CCCCC2)O[C@@H](C2CCCCC2)O[C@H]1C(F)(F)F | 21.3 µM (inactive) | 17.6 µM (inactive) | 52.2 µM (inactive) | 18.5 µM (inactive) | 19 µM (inactive) | 24 µM (inactive) | 41.8 µM (inactive) | 19.1 µM (inactive) | 20.5 µM (inactive) | 26.9 µM (inactive) | 22.2 µM (inactive) | 60.1 µM (inactive) | 19.3 µM (inactive) | 21.1 µM (inactive) | 16.6 µM (inactive) | 21.6 µM (inactive) | 19.9 µM (inactive) | 20 µM (inactive) | 22.9 µM (inactive) | 19.4 µM (inactive)
COc1cc(C(=O)Oc2c(C(C)=O)sc3c2c(=O)n(-c2ccccc2)c(=S)n3-c2ccccc2)cc(OC)c1OC | 20.2 µM (inactive) | 18.2 µM (inactive) | 1.01 µM (active) | 23.9 µM (inactive) | 5.78 µM (inactive) | 24.4 µM (inactive) | 26.4 µM (inactive) | 8.3 µM (inactive) | 33.9 µM (inactive) | 24.7 µM (inactive) | 22.8 µM (inactive) | 38.9 µM (inactive) | 12.6 µM (inactive) | 3.86 µM (inactive) | 21 µM (inactive) | 25 µM (inactive) | 18.7 µM (inactive) | 24.7 µM (inactive) | 18.9 µM (inactive) | 19.2 µM (inactive)
C=C1C(=O)O[C@@H]2C[C@@H](C)[C@@H]3C=CC(=O)[C@@]3(C)[C@@H](OC(=O)CCCC(=O)O[C@H]3[C@@H]4C(=C)C(=O)O[C@@H]4C[C@@H](C)[C@@H]4C=CC(=O)[C@]43C)[C@H]12 | 0.0853 µM (active) | 0.0931 µM (active) | 0.0102 µM (active) | 0.0565 µM (active) | 0.181 µM (active) | 1.04 µM (active) | 0.28 µM (active) | 0.989 µM (active) | 0.0323 µM (active) | < 0.01 µM (active) | 0.231 µM (active) | 0.0682 µM (active) | 0.27 µM (active) | 0.505 µM (active) | 0.112 µM (active) | < 0.01 µM (active) | 0.0518 µM (active) | 0.624 µM (active) | 0.0187 µM (active) | 0.0495 µM (active)
COC1=CC(=O)C2=C(C1=O)[C@H]1CC[C@]3(C)C(=O)CC[C@H]3[C@@H]1CC2 | 27.1 µM (inactive) | 28.5 µM (inactive) | 24.2 µM (inactive) | 30.1 µM (inactive) | > 100 µM (inactive) | 59.8 µM (inactive) | 25.3 µM (inactive) | 66.7 µM (inactive) | 25.8 µM (inactive) | 2.38 µM (inactive) | 36.8 µM (inactive) | > 100 µM (inactive) | > 100 µM (inactive) | 22.1 µM (inactive) | 21.4 µM (inactive) | 4.31 µM (inactive) | 18.6 µM (inactive) | 54.1 µM (inactive) | 28.1 µM (inactive) | 78 µM (inactive)
COC1CCC(OS(C)(=O)=O)C(C)O1 (stereo not given) | > 10 µM (inactive) | > 10 µM (inactive) | > 10 µM (inactive) | > 10 µM (inactive) | > 10 µM (inactive) | > 10 µM (inactive) | > 10 µM (inactive) | > 10 µM (inactive) | > 10 µM (inactive) | > 10 µM (inactive) | > 10 µM (inactive) | > 10 µM (inactive) | > 10 µM (inactive) | > 10 µM (inactive) | > 10 µM (inactive) | > 10 µM (inactive) | > 10 µM (inactive) | > 10 µM (inactive) | > 10 µM (inactive) | > 10 µM (inactive)
